Data: US20230374067A1, “NOVEL PEPTOIDS AND USE THEREOF FOR PREVENTING OR TREATING CHRONIC PAIN” (Université Clermont Auvergne, priority 2020, published 2023)
Square brackets hold non-standard residues; d marks the D form. Peptide text beside a SMILES is read from it. * marks the point of attachment. Gly(N-CH2CH2OH) = O=C(O)CNCCO; Nleu = CC(C)CNCC(=O)O; Bz = O=C(c1ccccc1)*

Legend:
[1] = test system: OIPN mice (oxaliplatin-induced neuropathy model mice); assay: Oxaliplatin-induced acute neuropathy in mice, paw immersion test (cold hypersensitivity); type: in vivo
Experimental: (§1) Immersion test: The tail or paw was immersed in a water bath set at 10° C. or 46° C. until shrinkage was observed (cut-off time: 30 s). The average of two separate determinations of withdrawal latency was calculated (Janssen, Niemegeers & Dony, 1963).
Oxaliplatin-induced acute neuropathy in mice: Mice were injected intraperitoneally (i.p.) with 6 mg/kg oxaliplatin dissolved in 5% glucose directly after the first behavioral assessment. At 90 h after drug administration, corresponding to the time required to reach peak hyperalgesia (Descoeur et al., 2011), a second assessment of cold sensitivity and mechanical sensitivity was performed.

[2] = test system: mice; assay: Rotarod test (locomotor activity); type: in vivo; conditions: administered subcutaneously (2.5, 5, or 10 mg/kg, s.c.)
Experimental: Rotarod Test: For the Rotarod test (Bioseb), the animals were first habituated to remain on the stationary cylinder for 10 min before switching to another 10 min with a rotational speed of 4 rpm. The animals were given the drug immediately after training and the test was performed 30 min later. The test consisted of measuring the latency to fall of the animals as the rotation increased from 4 to 40 rpm linearly over 5 min. The average of the two closest values over 3 trials was calculated.

[3] = target: T1, interaction between HCN and the TRIP8b tail (Homo sapiens, UniProt Q8IYB4); assay: Fluorescence polarization assay, disruption of TRIP8b-HCN interaction; type: binding; conditions: compared with NUCC5953
T1 sequence (Q8IYB4 265-626 limits assumed): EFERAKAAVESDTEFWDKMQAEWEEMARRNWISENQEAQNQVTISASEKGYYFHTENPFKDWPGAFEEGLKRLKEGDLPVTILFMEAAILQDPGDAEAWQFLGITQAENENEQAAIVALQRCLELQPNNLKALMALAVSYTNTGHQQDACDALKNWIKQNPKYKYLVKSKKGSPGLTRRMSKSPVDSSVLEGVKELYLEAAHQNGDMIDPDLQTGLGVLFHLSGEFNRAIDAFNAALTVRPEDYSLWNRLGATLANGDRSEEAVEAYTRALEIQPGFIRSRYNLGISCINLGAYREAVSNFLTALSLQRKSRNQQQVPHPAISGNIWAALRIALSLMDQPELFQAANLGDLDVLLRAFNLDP
Description: Fluorescence polarization assay: a fluorescence polarization (FP) based assay was used to identify compounds capable of disrupting the interaction between HCN and the TRIP8b tail, as published (Han et al., 2015).

[4] = test system: neuropathic rats; assay: Spinal nerve ligation induced neuropathy in rats, paw immersion test; type: in vivo; conditions: neuropathy induced by traumatic nerve injury, intrathecal, 5 μg
Experimental: as §1
Spinal nerve ligation induced neuropathy in rats: According to the procedure of Kim and Chung (1992), rats were placed in the […] position and anesthetized with 10 mg/kg xylazine and 75 mg/kg ketamine (i.p). The fur on the left side of the spine was then shaved to expose the skin. The skin was cut parallel to the spine and the paravertebral muscles were separated. The L5 transverse apophysis was removed until the L5 spinal nerve was exposed. The L5 nerve was isolated and ligated with silk thread. Finally, the muscle and skin incisions were sutured and the wound was disinfected with iodophor and 75% ethyl alcohol. In the sham group, the rats underwent the same surgical procedure without the nerve ligation.

[5] = test system: PTX rats; assay: Paclitaxel-induced neuropathy in rats (mechanical thresholds, paw immersion); type: in vivo; conditions: rat model of paclitaxel-induced neuropathy, i.t., 0.2, 1 or 5 μg
Experimental: as §1
Paw pressure test in rats: Rats were subjected to the paw pressure test previously described by Randall and Selitto (1957). Nociceptive thresholds, expressed in grams, were measured with a Ugo Basile analgesic meter (Apelex, probe tip diameter 1 mm, weight 30 g) by applying increasing pressure to the right hind paw of the rats until a pain sign (vocalization threshold) was obtained (cut-off was 750 g). Before the treatments, the rats were habituated to the test by handling them without subjecting them to paw pressure. Then, after obtaining two consecutive stable vocalization threshold values, the treatment effects were evaluated after 15, 30, 45, 60, 90, and 120 min. Results are expressed as vocalization thresholds, in grams. […] Data were analyzed by a 2-way ANOVA followed by a Bonferroni test, when the time course of the effects was studied. A one-way ANOVA followed by a Student Newman-Keuls test was used to analyze the effect of the different treatments determined by the CSAs. The level of statistical significance was set at p<0.05. […]

Compound | analgesic effect ([1]; mouse, in vivo) | other results
CC(C)C[C@H](NC(=O)CCN(CCCO)C(=O)CN(CCO)C(=O)CN(CC(C)C)C(=O)c1ccccc1)C(=O)O [MP354] |  | analgesic effect ([1]; OIPN mice, 10 mg/kg, s.c.): demonstrated an analgesic effect
CC(C)C[C@H](NC(=O)CCN(CCO)C(=O)CN(CCCO)C(=O)CN(CC(C)C)C(=O)c1ccccc1)C(=O)O [MP376] |  | analgesic effect ([1]; OIPN mice, 10 mg/kg, s.c.): demonstrated an analgesic effect
CC(C)C[C@H](NC(=O)CCN(CCO)C(=O)CN(CCO)C(=O)CN(C(=O)c1ccccc1)C(C)C)C(=O)O [LF295] | demonstrated an analgesic effect | 
CC(C)C[C@H](NC(=O)CCN(CCO)C(=O)CN(CCO)C(=O)CN(CC(C)C)C(=O)Cc1ccccc1)C(=O)O [MP341] |  | analgesic effect ([1]; OIPN mice, 10 mg/kg, s.c.): demonstrated an analgesic effect
CCCCN(CC(=O)N(CCO)CC(=O)N(CCO)CCC(=O)N[C@@H](CC(C)C)C(=O)O)C(=O)c1ccccc1 [LF222] | demonstrated an analgesic effect | 
CC(=O)N(CCO)CC(=O)N(CCO)CCC(=O)N[C@@H](CC(C)C)C(=O)O [LF369] |  | analgesic effect ([1]; OIPN mice, 5 μg, i.t.): demonstrated an analgesic effect
CC(C)C[C@H](NC(=O)CCN(CCO)C(=O)CN(CCN)C(=O)CN(CC(C)C)C(=O)c1ccccc1)C(=O)O [LF329] | demonstrated an analgesic effect | 
CC(C)C[C@H](NC(=O)CCN(CCO)C(=O)CN(CCO)C(=O)CN(Cc1ccccc1)C(=O)c1ccccc1)C(=O)O [MP208] | demonstrated an analgesic effect | 
CC(C)C[C@H](NC(=O)CCN(CCO)C(=O)CN(CCO)C(=O)CN(CC(C)C)C(=O)c1ccccc1)C(=O)O [YC55] |  | alteration in locomotor activity [2]: No alteration in locomotor activity; potency in disrupting the TRIP8b-HCN interaction [3]: equal potency to NUCC5953; dose-dependent analgesic effect / reversal of oxaliplatin-induced acute cold hypersensitivity ([1]; OIPN mice, i.t., 0.2, 1, 5 μg/mouse): dose-dependent analgesic effect; dose-dependent analgesic effect ([1]; OIPN mice, s.c., 2.5, 5 or 10 mg/kg): dose-dependent analgesic effect; antihyperalgesic effect [4]: antihyperalgesic effect; dose-dependent analgesic effect [5]: dose-dependent analgesic effect
Cc1cccc(C(=O)N(CC(=O)N(CCO)CC(=O)N(CCO)CCC(=O)N[C@@H](CC(C)C)C(=O)O)CC(C)C)c1 [LF400] | demonstrated an analgesic effect | 
Cc1ccc(C(=O)N(CC(=O)N(CCO)CC(=O)N(CCO)CCC(=O)N[C@@H](CC(C)C)C(=O)O)CC(C)C)cc1 [LF126] | demonstrated an analgesic effect | 
CC(C)C[C@H](NC(=O)CCN(CCO)C(=O)CN(CCO)C(=O)CN(CC(C)(C)C)C(=O)c1ccccc1)C(=O)O [LF306] | demonstrated an analgesic effect | 
CC(C)C[C@H](NC(=O)CCN(CC(N)=O)C(=O)CN(CCO)C(=O)CN(CC(C)C)C(=O)c1ccccc1)C(=O)O [LF176] | demonstrated an analgesic effect | 
CC(C)C[C@H](NC(=O)CN(CCO)C(=O)CN(CCO)C(=O)CN(CC(C)C)C(=O)c1ccccc1)C(=O)O [MP405] (Bz-[Nleu][Gly(N-CH2CH2OH)][Gly(N-CH2CH2OH)]L-OH) | demonstrated an analgesic effect | 
CC(C)C[C@H](NC(=O)CCN(CCO)C(=O)CN(CCO)C(=O)CN(Cc1ccccc1)C(=O)C(C)C)C(=O)O [LF239] | demonstrated an analgesic effect | 
CC(C)C[C@H](NC(=O)CCN(CCO)C(=O)CN(CCO)C(=O)CN(CC(C)C)C(=O)c1ccc(F)cc1)C(=O)O [LF261] | demonstrated an analgesic effect | 
CC(C)C[C@H](NC(=O)CCN(CCO)C(=O)CN(CCO)C(=O)CN(CC(C)C)C(=O)c1ccc([N+](=O)[O-])cc1)C(=O)O [LF108] | demonstrated an analgesic effect | 
CC(C)C[C@H](NC(=O)CCN(CCO)C(=O)CN(CCO)C(=O)CN(CC(C)C)C(=O)c1ccc(C(F)(F)F)cc1)C(=O)O [LF188] | demonstrated an analgesic effect | 
